In ChEMBL document CHEMBL4396867, “Identification of 5-Substituted 2-Acylaminothiazoles That Activate Tat-Mediated Transcription in HIV-1 Latency Models” (J Med Chem, 2019):
In brackets after ≈: the same amount, converted by molar mass.

How the values were obtained:
[1] = Aqueous solubility of the compound in 0.01M HCl at pH 2 by nephelometry; assay type: physicochemical
[2] = Aqueous solubility of the compound in phosphate buffer at pH 6.5 by nephelometry; assay type: physicochemical

Structure (SMILES)	solubility kinetic [1] [µM]	solubility kinetic [2] [µM]
Cc1cnc(NC(=O)NCCOc2ccc(Cl)c(C)c2)s1	1.6 to 3.1 (≈ 0.521 to 1.01 µg/mL)	< 1.6
Cc1cnc(NC(=O)CCCOc2cncc(Cl)c2)s1	1.6 to 3.1 (≈ 0.499 to 0.967 µg/mL)	3.1 to 6.3 (≈ 0.967 to 1.96 µg/mL)
Cc1cnc(NC(=O)CCCOc2cccc(C#N)c2)s1	< 1.1	< 1.1
N#Cc1cnc(NC(=O)CCCOc2cccc(Cl)c2)s1	< 1.6	< 1.6
N#Cc1cnc(NC(=O)CCCOc2ccccc2)s1	1.1 to 2.2 (≈ 0.316 to 0.632 µg/mL)	1.1 to 2.2 (≈ 0.316 to 0.632 µg/mL)
CC(C)c1cnc(NC(=O)CCCOc2ccccc2)s1	< 1.2	< 1.2
O=C(CCCOc1cccc(C(F)(F)F)c1)Nc1ncc(C(F)(F)F)s1	< 1.6	< 1.6
Cc1cnc(NC(=O)CCCOc2cccc(C(F)(F)F)c2)s1	< 1.1	< 1.1
Cc1cnc(NC(=O)CCCOc2cccc(Cl)n2)s1	< 1.2	< 1.2
Cc1cnc(NC(=O)CCCOc2ccccc2)s1	1.1 to 2.3 (≈ 0.304 to 0.636 µg/mL)	< 1.1
Cc1cnc(NC(=O)CCCOc2cccc(Cl)c2)s1	< 1.1	< 1.1
N#Cc1cnc(NC(=O)CCCOc2cccc(C(F)(F)F)c2)s1	< 1.6	< 1.6
O=C(CCCOc1ccccc1)Nc1ncc(Cl)s1	< 1.2	< 1.2
